Assay results: patent publication US20220169654A1, “New Organic Compounds” (Servier Pharmaceuticals LLC, priority 2020, published 2022)

Legend:
[1] = molecular target: T1, MAT2A homodimer (Homo sapiens, UniProt P31153); experiment: MAT2A inhibition (biochemical, liberated phosphate, PiColorLock Gold); conditions: recombinant MAT2A homodimer; IC50 bin with Max Inh.; read-out: Enzyme Inhibition Bin
T1 construct: inferred from Ni sepharose purification with imidazole elution; made in house; host or cells: Sf9 insect cells, baculovirus (Bac to Bac, pFASTBAC1)
How it was run: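 Baculovirus/Sf9-expressed, Ni-purified MAT2A (4 μg/mL) preincubated with compound 60 min at 25 °C in Tris pH 8.0/KCl/MgCl2 buffer. Reaction started with 500 μM ATP and 400 μM L-methionine (substrate-mix concentrations), run 60 min at 25 °C. Phosphate measured colorimetrically against a phosphate standard curve to give IC50.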

[2] = system: SAM in HCT116 human colon carcinoma cell line with MTAP gene deleted (MTAP −/−); experiment: Cellular assay of target engagement (SAM), LC-MS/MS, 72 hrs; assay type: cell-based; conditions: HCT-116, IC50 bin with Max Inh., read-out: Cell 72 h SAM Inhibition (MTAP −/−)
How it was run: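 MTAP-deleted HCT116 cells plated 24 h, then given 10-point 3-fold dilutions for 72 hrs at 37° C. Intracellular SAM extracted in cold 80% methanol with 1M acetic acid and d3-SAM standard, quantified by LC-MS/MS (MRM m/z 399.2→250.1); IC50 derived.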

[3] = system: HCT116 MTAP−/−; experiment: Inhibition of cellular proliferation, 4 days, Cell Titer Glo, HCT116 MTAP−/−; assay type: cell-based; conditions: Homo sapiens, HCT-116, 96 h, IC50 bin with Max Inh., read-out: 4 Day Relative Growth Inhibition (MTAP −/−)
How it was run: (§1)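 Isogenic HCT116 pair differing only in MTAP status, plated 24 h before treatment with 10-point 3-fold dilutions; 4 days at 37° C./5% CO2. Cell Titer Glo luminescence, blank-subtracted and normalised to 0.2% DMSO control, gives percentage proliferation vs log molar concentration for IC50.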

[4] = system: HCT116 MTAP+/+; experiment: Inhibition of cellular proliferation, 4 days, Cell Titer Glo, HCT116 MTAP+/+; assay type: cell-based; conditions: Homo sapiens, HCT-116, 96 h, IC50 bin with Max Inh., read-out: 4 Day Relative Growth Inhibition (MTAP +/+)
How it was run: as §1

T1 sequence (P31153 whole entry): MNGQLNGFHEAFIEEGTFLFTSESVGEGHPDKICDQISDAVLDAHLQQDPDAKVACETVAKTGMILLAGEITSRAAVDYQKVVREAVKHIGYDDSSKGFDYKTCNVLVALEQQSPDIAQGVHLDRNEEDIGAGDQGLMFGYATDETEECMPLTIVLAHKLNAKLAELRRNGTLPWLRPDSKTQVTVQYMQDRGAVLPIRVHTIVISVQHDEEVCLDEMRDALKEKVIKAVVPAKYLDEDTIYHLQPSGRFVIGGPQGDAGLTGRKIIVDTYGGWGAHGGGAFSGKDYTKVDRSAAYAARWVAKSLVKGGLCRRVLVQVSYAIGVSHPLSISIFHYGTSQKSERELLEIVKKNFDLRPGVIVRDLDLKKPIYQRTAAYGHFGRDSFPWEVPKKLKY

| Structure (SMILES) | IC50 [1] [nM] | IC50 [2] [nM] | IC50 [3] [nM] | IC50 [4] [nM] |
| --- | --- | --- | --- | --- |
| Nc1ccc(-n2nc3ccn(CC4CC4)c3c(-c3ccc(OC(F)F)cc3)c2=O)cc1 [Example 228, 2-(4-aminophenyl)-5-(cyclopropylmethyl)-4-(4-(difluoromethoxy)phenyl)-2,5-dihydro-3H-pyrrolo[3,2-c]pyridazin-3-one] | < 100 | 100 to 1000 | > 1000 | > 1000 |
| COc1ccc(-n2nc3ccn(CC4CC4)c3c(-c3ccc(OC(F)F)cc3)c2=O)cc1 [Example 229, 5-(cyclopropylmethyl)-4-(4-(difluoromethoxy)phenyl)-2-(4-methoxyphenyl)-2,5-dihydro-3H-pyrrolo[3,2-c]pyridazin-3-one] | < 100 | < 100 | < 100 | 100 to 1000 |
| COC1CC=C(n2nc3ccn(CC4CC4)c3c(-c3ccc(OC(F)F)cc3)c2=O)CC1 (stereo not drawn) [Example 230, 5-(cyclopropylmethyl)-4-(4-(difluoromethoxy)phenyl)-2-(4-methoxycyclohex-1-en-1-yl)-2,5-dihydro-3H-pyrrolo[3,2-c]pyridazin-3-one] | < 100 | 100 to 1000 | 100 to 1000 | > 1000 |
| O=c1c(-c2ccc(OC(F)F)cc2)c2c(ccn2CC2CC2)nn1-c1cn[nH]c1 [Example 231, 5-(cyclopropylmethyl)-4-(4-(difluoromethoxy)phenyl)-2-(1H-pyrazol-4-yl)-2,5-dihydro-3H-pyrrolo[3,2-c]pyridazin-3-one] | < 100 | 100 to 1000 | 100 to 1000 | > 1000 |
| Cn1cc2cc(-n3nc4c(Cl)cn(CC5CC5)c4c(-c4ccc(C5CC5)nc4)c3=O)ccc2n1 [Example 233, 7-chloro-5-(cyclopropylmethyl)-4-(6-cyclopropylpyridin-3-yl)-2-(2-methyl-2H-indazol-5-yl)-2,5-dihydro-3H-pyrrolo[3,2-c]pyridazin-3-one] | < 100 | < 100 | < 100 | 100 to 1000 |
| Cc1cn(CC2CC2)c2c(-c3ccc(C4CC4)nc3)c(=O)n(-c3ccc4nn(C)cc4c3)nc12 [Example 234, 5-(cyclopropylmethyl)-4-(6-cyclopropylpyridin-3-yl)-7-methyl-2-(2-methyl-2H-indazol-5-yl)-2,5-dihydro-3H-pyrrolo[3,2-c]pyridazin-3-one] | < 100 | < 100 | < 100 | < 100 |
| Cn1cc2cc(-n3nc4c(F)cn(CC5CC5)c4c(-c4ccc(C5CC5)nc4)c3=O)ccc2n1 [Example 235, 5-(cyclopropylmethyl)-4-(6-cyclopropylpyridin-3-yl)-7-fluoro-2-(2-methyl-2H-indazol-5-yl)-2,5-dihydro-3H-pyrrolo[3,2-c]pyridazin-3-one] | < 100 | < 100 | < 100 | > 1000 |
| CC(=O)c1cn(CC2CC2)c2c(-c3ccc(C4CC4)nc3)c(=O)n(-c3ccc4nn(C)cc4c3)nc12 [Example 236, 7-acetyl-5-(cyclopropylmethyl)-4-(6-cyclopropylpyridin-3-yl)-2-(2-methyl-2H-indazol-5-yl)-2,5-dihydro-3H-pyrrolo[3,2-c]pyridazin-3-one] | < 100 | < 100 | < 100 | > 1000 |
| Cc1ccc(-c2c(=O)n(-c3ccc4nn(C)cc4c3)nc3c(F)cn(CC4CC4)c23)cn1 [Example 237, 5-(cyclopropylmethyl)-7-fluoro-2-(2-methyl-2H-indazol-5-yl)-4-(6-methylpyridin-3-yl)-2,5-dihydro-3H-pyrrolo[3,2-c]pyridazin-3-one] | < 100 | < 100 | < 100 | 100 to 1000 |
| Cn1cc2cc(-n3nc4c(Br)cn(CC5CC5)c4c(-c4ccc(C5CC5)nc4)c3=O)ccc2n1 [Example 238, 7-bromo-5-(cyclopropylmethyl)-4-(6-cyclopropylpyridin-3-yl)-2-(2-methyl-2H-indazol-5-yl)-2,5-dihydro-3H-pyrrolo[3,2-c]pyridazin-3-one] | < 100 | < 100 | < 100 | > 1000 |
| Cn1cc2cc(-n3nc4c(CO)cn(CC5CC5)c4c(-c4ccc(C5CC5)nc4)c3=O)ccc2n1 [Example 239, 5-(cyclopropylmethyl)-4-(6-cyclopropylpyridin-3-yl)-7-(hydroxymethyl)-2-(2-methyl-2H-indazol-5-yl)-2,5-dihydro-3H-pyrrolo[3,2-c]pyridazin-3-one] | < 100 | < 100 | < 100 | < 100 |
| Cn1cc2cc(-n3nc4c(C(F)F)cn(CC5CC5)c4c(-c4ccc(C5CC5)nc4)c3=O)ccc2n1 [Example 240, 5-(cyclopropylmethyl)-4-(6-cyclopropylpyridin-3-yl)-7-(difluoromethyl)-2-(2-methyl-2H-indazol-5-yl)-2,5-dihydro-3H-pyrrolo[3,2-c]pyridazin-3-one] | < 100 | < 100 | < 100 | 100 to 1000 |
| Cn1nc2ccc(-n3nc4ccn(CC5CC5)c4c(-c4ccc(C5CC5)nc4)c3=O)cc2c1C(F)(F)F [Example 241, 5-(cyclopropylmethyl)-4-(6-cyclopropylpyridin-3-yl)-2-(2-methyl-3-(trifluoromethyl)-2H-indazol-5-yl)-2,5-dihydro-3H-pyrrolo[3,2-c]pyridazin-3-one] | < 100 | < 100 | < 100 | > 1000 |
| Cn1nc2ccc(-n3nc4c(C(F)(F)F)cn(CC5CC5)c4c(-c4ccc(C5CC5)nc4)c3=O)cc2c1C(F)(F)F [Example 242, 5-(cyclopropylmethyl)-4-(6-cyclopropylpyridin-3-yl)-2-(2-methyl-3-(trifluoromethyl)-2H-indazol-5-yl)-7-(trifluoromethyl)-2,5-dihydro-3H-pyrrolo[3,2-c]pyridazin-3-one] | < 100 | 100 to 1000 | 100 to 1000 | 100 to 1000 |
| Cn1cc2cc(-n3nc4c(C#C[Si](C)(C)C)cn(CC5CC5)c4c(-c4ccc(C5CC5)nc4)c3=O)ccc2n1 [Example 243, 5-(cyclopropylmethyl)-4-(6-cyclopropylpyridin-3-yl)-2-(2-methyl-2H-indazol-5-yl)-7-((trimethylsilyl)ethynyl)-2,5-dihydro-3H-pyrrolo[3,2-c]pyridazin-3-one] | < 100 | < 100 | < 100 | > 1000 |
| C#Cc1cn(CC2CC2)c2c(-c3ccc(C4CC4)nc3)c(=O)n(-c3ccc4nn(C)cc4c3)nc12 [Example 244, 5-(cyclopropylmethyl)-4-(6-cyclopropylpyridin-3-yl)-7-ethynyl-2-(2-methyl-2H-indazol-5-yl)-2,5-dihydro-3H-pyrrolo[3,2-c]pyridazin-3-one] | < 100 | < 100 | < 100 | 100 to 1000 |
| Cn1cc2cc(-n3nc4c(C#CC(F)(F)F)cn(CC5CC5)c4c(-c4ccc(C5CC5)nc4)c3=O)ccc2n1 [Example 245, 5-(cyclopropylmethyl)-4-(6-cyclopropylpyridin-3-yl)-2-(2-methyl-2H-indazol-5-yl)-7-(3,3,3-trifluoroprop-1-yn-1-yl)-2,5-dihydro-3H-pyrrolo[3,2-c]pyridazin-3-one] | < 100 | > 1000 | 100 to 1000 | > 1000 |
| Cn1cc2cc(-n3nc4c(C(F)(F)F)cn(CC5CC5)c4c(-c4ccc(C5CC5)nc4)c3=O)ccc2n1 [Example 246, 5-(cyclopropylmethyl)-4-(6-cyclopropylpyridin-3-yl)-2-(2-methyl-2H-indazol-5-yl)-7-(trifluoromethyl)-2,5-dihydro-3H-pyrrolo[3,2-c]pyridazin-3-one] | < 100 | < 100 | < 100 | 100 to 1000 |
| CCc1cn(CC2CC2)c2c(-c3ccc(C4CC4)nc3)c(=O)n(-c3ccc4nn(C)cc4c3)nc12 [Example 247, 5-(cyclopropylmethyl)-4-(6-cyclopropylpyridin-3-yl)-7-ethyl-2-(2-methyl-2H-indazol-5-yl)-2,5-dihydro-3H-pyrrolo[3,2-c]pyridazin-3-one] | < 100 | < 100 | < 100 | > 1000 |
| CC(C)c1cn(CC2CC2)c2c(-c3ccc(C4CC4)nc3)c(=O)n(-c3ccc4nn(C)cc4c3)nc12 [Example 248, 5-(cyclopropylmethyl)-4-(6-cyclopropylpyridin-3-yl)-7-isopropyl-2-(2-methyl-2H-indazol-5-yl)-2,5-dihydro-3H-pyrrolo[3,2-c]pyridazin-3-one] | < 100 | < 100 | < 100 | > 1000 |
| C[C@@H](O)c1cn(CC2CC2)c2c(-c3ccc(C4CC4)nc3)c(=O)n(-c3ccc4nn(C)cc4c3)nc12 [Example 249, (R)-5-(cyclopropylmethyl)-4-(6-cyclopropylpyridin-3-yl)-7-(1-hydroxyethyl)-2-(2-methyl-2H-indazol-5-yl)-2,5-dihydro-3H-pyrrolo[3,2-c]pyridazin-3-one] | < 100 | < 100 | < 100 | > 1000 |
